Experimental data as given in patent US9089544B2, “Composition” (Slotervaart Participaties BV, priority 2007, dated 2015).
“And” between values parts separate entries of the source, which are not always exact repeats. Identical values can stand only once. Each block holds one compound with its values, some of them ahead of it.

Key:
[1] = Docetaxel solubility (dissolution) test of formulations A to N in 25 mL WfI; type: physicochemical; settings: 37° C., 720 rpm; for maximum docetaxel concentration / maximum docetaxel concentration as % of total docetaxel present: ±6 mg docetaxel
Procedure: A magnetic stirring bar and 25 mL water were added to the beaker. The solution was stirred at 720 rpm, and kept at approximately 37° C. Samples were collected at various timepoints, and filtrated using a 0.45 μm filter before they were diluted with a 1:4 v/v mixture of methanol and acetonitrile. The filtrated and diluted samples were subsequently analyzed by HPLC-UV (see table 17).

[2] = cited from earlier work
[3] = cited from earlier work; remark: listed apart in the source
clinical [4] = settings: human, in vivo, 100 mg
Procedure: Oral ritonavir: 1 capsule with 100 mg ritonavir (Norvir®).
Ritonavir dose: 1 capsule with 100 mg ritonavir (Norvir®).
After drug administration blood samples were collected for pharmacokinetic analyses. A blank sample was taken before dosing. Blood samples were centrifuged, plasma was separated and immediately stored at −20° C. until analyses. Analysis were performed with validated HPLC methods in a GLP (Good Laboratory Practice) licensed laboratory. This concerns all pharmacokinetic studies presented here by the inventors.

[5] = human, in vivo
[6] = Clinical phase I trial: docetaxel liquid formulation versus MODRA capsules with ritonavir (Example 5); type: in vivo, human; settings: 20 mg docetaxel liquid formulation, patient 306
Procedure: 10 patients participated in an ongoing clinical phase I trial.
The final mixture was transferred to a stainless steel lyophilisation box (Gastronorm size 1/3), t-butanol and water were subsequently removed by lyophilisation (see table. 16).
Patients took the medication orally on an empty stomach in the morning with 100 mL tap water.
Patients 307, 308, 309 and 310 received liquid formulation and/or MODRA. Cycles were administered in a weekly interval.
According to institutional guidelines, for both oral and i.v. docetaxel all patients were treated with oral dexamethason. A dose of 4 mg dexamethason was given 1 hour prior to the study drugs, followed by 4 mg every 12 hours (2 times).
A blank sample was taken before dosing.
According to institutional guidelines, for both oral and i.v. docetaxel, all patients were treated with oral dexamethason. A dose of 4 mg dexamethason was given 1 hour prior to the study drugs, followed by 4 mg every 12 hours (2 times).

[7] = cited from earlier work; remark: listed apart in the source
clinical [8] = settings: human, in vivo, po, 100 mg
[9] = cited from earlier work; remark: listed apart in the source
[10] = mice; cited from earlier work
[11] = oral docetaxel 75 mg/m^2, CsA 15 mg/kg

solubility from 10 to 60 minutes [1]: comparable to formulation A
time of stirring at which maximum concentration is reached [1]: 0.5 min
maximum docetaxel concentration [1]: 32 µg/mL
maximum docetaxel concentration as % of total docetaxel present [1]: 13%
Compound: CC(=O)O[C@@]12CO[C@@H]1C[C@H](O)[C@@]1(C)C(=O)[C@H](O)C3=C(C)[C@@H](OC(=O)[C@H](O)[C@@H](NC(=O)OC(C)(C)C)c4ccccc4)C[C@@](O)([C@@H](OC(=O)c4ccccc4)[C@H]21)C3(C)C [Formulation B, docetaxel]

Compound: CC(=O)O[C@H]1C(=O)[C@@]2(C)[C@H]([C@H](OC(=O)c3ccccc3)[C@]3(O)C[C@H](OC(=O)[C@H](O)[C@@H](NC(=O)c4ccccc4)c4ccccc4)C(C)=C1C3(C)C)[C@]1(OC(C)=O)CO[C@@H]1C[C@@H]2O [paclitaxel]
apparent bioavailability of oral paclitaxel with CsA ([2]; 60 mg/m^2 oral paclitaxel, 15 mg/kg CsA): 47%
apparent bioavailability of oral paclitaxel without CsA ([2]; 60 mg/m^2 oral paclitaxel): 4%
maximum tolerated dose ([2]; oral paclitaxel in combination with CsA): 300 mg/m^2
increase of AUC in knockout mice compared with wild-type mice, i.v. administration ([3]; mdr1a P-gp knockout mice): twofold
increase of AUC in knockout mice compared with wild-type mice, oral administration ([3]; mdr1a P-gp knockout mice): sixfold
oral bioavailability in wild-type mice when CsA was coadministered ([3]; mouse, in vivo, po): 67%
oral bioavailability in wild-type mice with GF120918 ([3]; mouse, in vivo, po): 40%
oral bioavailability in wild-type mice, paclitaxel alone ([3]; mouse, in vivo, po): 9% and 8.5%
fraction of unchanged paclitaxel recovered from the faeces, mdr1a P-gp knockout mice ([3]; oral administration): 3%

equilibrium docetaxel concentration [1]: approximately 6 μg/mL
equilibrium docetaxel concentration as % of total docetaxel present [1]: ~2%
time at which equilibrium concentration is reached [1]: 15 min
time of stirring at which maximum concentration is reached [1]: 5 min
maximum docetaxel concentration [1]: approximately 12 μg/mL
maximum docetaxel concentration as % of total docetaxel present [1]: ~4.7%
Compound: CC(=O)O[C@@]12CO[C@@H]1C[C@H](O)[C@@]1(C)C(=O)[C@H](O)C3=C(C)[C@@H](OC(=O)[C@H](O)[C@@H](NC(=O)OC(C)(C)C)c4ccccc4)C[C@@](O)([C@@H](OC(=O)c4ccccc4)[C@H]21)C3(C)C [Formulation A, docetaxel]

Ritonavir Cmax Simultaneous (clinical [4]; po): 200 ng/mL
Compound: CC(C)c1nc(CN(C)C(=O)N[C@H](C(=O)N[C@@H](Cc2ccccc2)C[C@H](O)[C@H](Cc2ccccc2)NC(=O)OCc2cncs2)C(C)C)cs1 [ritonavir]

volume of the central compartment, oral administration [5]: ~60 L
increase of docetaxel AUC by second boosting dose of 100 mg ritonavir 4 hours after docetaxel [6]: 1.5 fold
AUC (clinical [4]; iv, AUC IV day 15): 2100 ng·h/mL
Tmax (clinical [4]; iv, Tmax IV day 15): 48 min
AUC (clinical [4]; po, AUC docetaxel oral without ritonavir): 290 ± 260 ng·h/mL
bioavailability (clinical [8]): 14%
Compound: CC(=O)O[C@@]12CO[C@@H]1C[C@H](O)[C@@]1(C)C(=O)[C@H](O)C3=C(C)[C@@H](OC(=O)[C@H](O)[C@@H](NC(=O)OC(C)(C)C)c4ccccc4)C[C@@](O)([C@@H](OC(=O)c4ccccc4)[C@H]21)C3(C)C [docetaxel]
docetaxel AUC ([7]; 100 mg oral docetaxel + CsA 15 mg/kg, weekly): about 2.3 mg·h/L
overall response rate ([7]; weekly 100 mg oral docetaxel + CsA 15 mg/kg, breast cancer): 50% and 52%
apparent bioavailability of oral docetaxel with CsA [9, 11]: 90%
increase of the systemic exposure of docetaxel with oral CsA [9, 11]: 7.3 fold
apparent bioavailability of oral docetaxel without CsA ([9]; oral docetaxel 75 mg/m^2): 8%
inter- and intra-patient variabilities in the AUC of docetaxel ([9]; range observed after i.v. administration, oral in the same range): 29%-53%
apparent bioavailability without ritonavir [10]: 4%
increase of AUC of oral docetaxel by coadministration with CsA [10]: ninefold
